Reference: patent US20210255184A1, “Biosensor Device and Methods” (The New Zealand Institute for Plant and Food Research …, priority 2018, published 2021)

What was measured:
PxOR1/Orco = settings: ref 14; * estimated visually from graph; cited from earlier work
OscaOR1/Orco = settings: ref 47; * estimated visually from graph; cited from earlier work
BmOR3/Orco = settings: ref 14; * estimated visually from graph; cited from earlier work
MsiOR1/Orco = settings: ref 48; * estimated visually from graph; cited from earlier work
AgOr65/Orco = settings: cited from earlier work
BmOR1/Orco = settings: ref 14; * estimated visually from graph; cited from earlier work
DOr85b/Orco = target: T1, DOr85b/Orco (Drosophila melanogaster, UniProt Q9VHQ6); settings: cited from earlier work
T1 construct: host or cells: Xenopus oocytes
T1 sequence (Q9VHQ6 1-389): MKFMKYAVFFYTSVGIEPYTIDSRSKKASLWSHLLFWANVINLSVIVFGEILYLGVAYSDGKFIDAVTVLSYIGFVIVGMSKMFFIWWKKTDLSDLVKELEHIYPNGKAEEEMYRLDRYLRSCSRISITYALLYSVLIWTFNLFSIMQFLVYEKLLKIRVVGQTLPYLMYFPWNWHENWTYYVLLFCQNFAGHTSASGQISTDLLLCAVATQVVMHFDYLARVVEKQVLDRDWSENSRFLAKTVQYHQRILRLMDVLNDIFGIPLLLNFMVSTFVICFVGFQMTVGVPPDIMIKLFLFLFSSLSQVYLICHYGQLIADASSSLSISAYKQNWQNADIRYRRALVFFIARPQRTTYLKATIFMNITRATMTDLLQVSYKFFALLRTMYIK
T1 sequence (Q9VNB5 1-486 partner): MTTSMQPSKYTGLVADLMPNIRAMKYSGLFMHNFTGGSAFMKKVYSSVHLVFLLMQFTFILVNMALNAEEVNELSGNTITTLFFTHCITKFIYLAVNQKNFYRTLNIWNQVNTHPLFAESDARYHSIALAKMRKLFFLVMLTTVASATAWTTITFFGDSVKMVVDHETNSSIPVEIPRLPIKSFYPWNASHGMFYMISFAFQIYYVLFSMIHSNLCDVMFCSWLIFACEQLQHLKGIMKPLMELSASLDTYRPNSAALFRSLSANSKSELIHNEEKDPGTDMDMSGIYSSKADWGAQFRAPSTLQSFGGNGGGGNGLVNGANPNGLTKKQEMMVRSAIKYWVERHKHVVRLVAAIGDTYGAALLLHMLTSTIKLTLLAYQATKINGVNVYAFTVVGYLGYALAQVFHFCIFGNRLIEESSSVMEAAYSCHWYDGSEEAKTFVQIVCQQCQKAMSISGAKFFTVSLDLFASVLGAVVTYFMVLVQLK

Or71a/Orco = target: T2, Or71a/Orco (Drosophila melanogaster, UniProt Q9VUK5); assay: Droplet interface bilayer ion channel recording, Or71a/Orco; type: biochemical; settings: DIB, 10 μM ligand, holding potential 0 mV and −100 mV
T2 construct: his-tag; made in house; host or cells: baculovirus-infected Sf9 cells
T2 sequence (Q9VUK5 1-378): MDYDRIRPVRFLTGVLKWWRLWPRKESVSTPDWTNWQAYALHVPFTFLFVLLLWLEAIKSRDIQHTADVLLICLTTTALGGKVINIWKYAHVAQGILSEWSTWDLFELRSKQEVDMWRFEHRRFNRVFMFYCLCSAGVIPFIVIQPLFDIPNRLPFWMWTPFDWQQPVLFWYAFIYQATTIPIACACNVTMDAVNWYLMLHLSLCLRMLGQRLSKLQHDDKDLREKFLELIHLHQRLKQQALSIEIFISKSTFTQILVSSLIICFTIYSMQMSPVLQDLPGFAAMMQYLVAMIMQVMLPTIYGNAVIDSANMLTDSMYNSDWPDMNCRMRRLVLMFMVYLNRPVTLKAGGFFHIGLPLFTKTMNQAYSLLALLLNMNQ
T2 sequence (Q9VNB5 1-486 partner): T1 sequence (Q9VNB5 1-486 partner)
Procedure: Bilayers were formed between two droplets formed within a PMMA chamber filled with 1 mg/ml DPhPC in undecane and AR20 silicone oil (1:1 ratio). The first step in this process was to deposit a 50 nl droplet onto the stationary silver electrode positioned at the base of the well; this droplet consisted of an aqueous solution containing 300 mM NaCl, 10 mM HEPES (pH 7.4), containing the odorant receptor proteins in proteoliposomes (at a 1:20 dilution from the proteoliposome preparation), […] The second droplet was mounted onto a second silver electrode which was held in the oil and lipid mixture using a YOU-3 manipulator (Narishige, Japan). […] Once the droplets were in contact a bilayer formed spontaneously within 1 minute (as determined by visual assessment and an increase in the bilayer capacitance as measured with a capacitance voltage protocol using the Pico2 amplifier). Insertion of an active channel was determined by a change in current while clamping the voltage at 50 mV. […]
Currents were recorded with a Pico2 or an eONE-HS amplifier (Tecella, USA and Elements, Italy, respectively) with built-in digitizers, operating in gap-free acquisition mode at a sampling frequency of 20 kHz, and using a 0.8 or 1.5 kHz low pass filter. […]
Data were analysed using ANA (Dr Pusch, Genoa), EDR (Elements, Italy) and WinWCP (Dr Dempster, University of Strathclyde). […]

Or35a = target: T3, Or35a (Drosophila melanogaster, UniProt Q9V3Q2); assay: EIS sensor, Or35a liposomes on gold electrode; type: biochemical
T3 construct: his-tag; made in house; host or cells: baculovirus-infected Sf9 cells
T3 sequence (Q9V3Q2 1-409): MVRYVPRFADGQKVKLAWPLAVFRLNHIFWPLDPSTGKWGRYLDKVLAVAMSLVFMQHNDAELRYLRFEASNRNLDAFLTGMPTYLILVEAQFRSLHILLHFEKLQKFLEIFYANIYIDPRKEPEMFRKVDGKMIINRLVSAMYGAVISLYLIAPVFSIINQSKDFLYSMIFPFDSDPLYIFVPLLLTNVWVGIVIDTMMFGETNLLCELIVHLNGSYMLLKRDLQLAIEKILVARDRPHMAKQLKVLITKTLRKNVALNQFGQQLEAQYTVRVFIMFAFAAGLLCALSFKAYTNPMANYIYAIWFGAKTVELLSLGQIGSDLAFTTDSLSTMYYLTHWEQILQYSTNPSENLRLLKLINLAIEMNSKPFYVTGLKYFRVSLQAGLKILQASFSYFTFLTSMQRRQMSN
Procedure: (§1) PBS (pH=7.4) was used as an electrolyte to conduct electrochemical measurements. PBS buffer was degassed for about 30 minutes prior to electrochemical measurements. Odorant solutions of concentration ranging from 1 aM to 1 μM were prepared by sequential dilution in PBS solution containing 1% DMSO. OR immobilized electrodes were incubated in relevant odorant solution for ˜30 minutes each and washed gently with PBS before EIS measurements.
(§2) EIS measurements were done in a 3 electrode cell containing Ag/AgCl (3 M NaCl, 0.209 V vs. SHE) reference electrode, coiled platinum wire as a counter electrode and the gold disk as a working electrode at a fixed voltage of −0.7 using PalmSens potentiostat. Degassed PBS was used as an electrolyte.
(§3) EIS measurements were performed on gold electrodes functionalised with OrX liposomes (either Or10a or Or22a), OrX/Orco liposomes, or empty liposomes prior to and after target ligand or control ligand incubation with increasing concentrations (1 aM to 100 μM). Dose response curves were obtained by defining sensor response as −(ΔRp/R^op) versus log[C(Ligand)]. FIG. 4a presents the EIS response in terms of Nyquist plot for the Or10a liposome functionalized sensors when exposed to a solution containing one of the known target ligands of Or10a, methyl salicylate, at various concentrations. […] The dose response curve (FIG. 4b) was obtained by plotting the change in polarization resistance −(ΔRp/R^op) versus log[conc(Ligand)], as the sensor response. Here, Rp is the polarization resistance after Or10a liposome-target interaction and R^op is the polarization resistance before Or10a liposome-target interaction.
(§4) Prior to use, 1 mg liposomes (500 μl at 2 mg/ml) were defrosted on ice and then destabilized by incubating with 0.2% CHAPS for 15 min at room temperature. […] All Or35a/Orco integrated liposomes samples were analysed by Western blot before being aliquoted and stored at −80° C. Integration of Or35a/Orco into liposomes was assessed by density gradient ultracentrifugation (DGU) using Accudenz (Accurate Chemical & Scientific Corporation, USA). […]

Or35a/Orco = target: T4, Or35a/Orco (Drosophila melanogaster, UniProt Q9V3Q2); assay: EIS sensor, Or35a/Orco liposomes on gold electrode; type: biochemical
T4 construct: his-tag; made in house; host or cells: baculovirus-infected Sf9 cells
T4 sequence (Q9V3Q2 1-409): T3 sequence (Q9V3Q2 1-409)
T4 sequence (Q9VNB5 1-486 partner): T1 sequence (Q9VNB5 1-486 partner)
Procedure: as §1
as §2, with “electrolyte. […]” for “electrolyte.”
as §4

[1] = EIS sensor, empty liposomes (specificity control); type: biochemical; settings: empty liposomes without receptor
Procedure: PBS solution was prepared by immersing one tablet of PBS in 200 ml of milli-Q water (according to manufacturers instructions) and filtered using 0.2-μm syringe filter. The pH of the prepared buffer solution was measured with a pH meter. OrX liposomes or OrX/Orco liposomes were diluted 100 fold in PBS buffer solution (pH=7.4) and the COOH-activated electrodes were incubated in that buffer solution at room temperature for one hour. Then, the electrodes were washed extensively with PBS buffer solution to wash out any unbound liposomes.
as §1, §2
as §3, with “Here, Rp is the polarization resistance after Or10a liposome-target interaction and R^op is the polarization resistance before Or10a liposome-target interaction.” left out

DiOR1/Orco = settings: ref 48; * estimated visually from graph; cited from earlier work
ECB (Z) OR3/Orco = settings: cited from earlier work
AgOr48/Orco = settings: cited from earlier work
[2] = EIS dose response, ligand 1 aM to 100 μM

**Q.** For `CCCC/C=C\CCCCCCCCCC=O` [Z11-16:Ald], which Sensitivity limit (PxOR1/Orco) is on record?
**A.** The Sensitivity limit was 10^−8-10^−6 M*.

**Q.** Which Sensitivity limit (OscaOR1/Orco) does the source give for `CC/C=C/CCCCCCCCCCO` [E11-14:OH] here?
**A.** The Sensitivity limit was 10^−7 M*.

**Q.** Which Sensitivity limit (BmOR3/Orco) does the source give for `CCC/C=C\C=C\CCCCCCCCC=O` [Bonnbykal] here?
**A.** The Sensitivity limit was 10^−8-10^−6 M*.

**Q.** Which Sensitivity limit (MsiOR1/Orco) does the source give for `CCCC/C=C\CCCCCCCCCCOC(C)=O` [Z11-16:Ac] here?
**A.** The Sensitivity limit was 10^−7 M*.

**Q.** With `C=CCc1ccc(O)c(OC)c1` [eugenol] as the compound, how does the “Ec50 (given as Log)” value (AgOr65/Orco; log value) read?
**A.** The value was “Log = −6.54”.

**Q.** And the “Sensitivity limit (given as Log)” value (AgOr65/Orco; ref 43, * estimated visually from graph)?
**A.** Its value is “Log = −7*”.

**Q.** Which Sensitivity limit (BmOR1/Orco) does the source give for `CCC/C=C\C=C\CCCCCCCCCO` [Bonnbykol] here?
**A.** The Sensitivity limit was 10^−8-10^−6 M*.

**Q.** For `CCCCCC(C)=O` [2-heptanone], which EC50 (DOr85b/Orco) is on record?
**A.** The EC50 was 45.6 µM.

**Q.** What about the Sensitivity limit (DOr85b/Orco; ref 14, * estimated visually from graph) of the same compound?
**A.** Its Sensitivity limit is 10^−8-10^−6 M*.

**Q.** For `CCc1ccc(OC)c(O)c1` [4-ethyl guaiacol], which ion channel activity (Or71a/Orco) is on record?
**A.** Its ion channel activity is “active ligand gated ion channel”.

**Q.** Which results are given for `CCC/C=C/C=O` [E2-hexenal]?
**A.** limit of detection (LOD) (Or35a; [2]): 10 fM; Detection Range (Or35a; Table 3): 10^−14 to 10^−6 M; limit of detection (Or35a/Orco; [2]): 0.1 fM; Detection Range (Or35a/Orco; Table 3): 10^−16-10^−6 M; sensor response to ligand [1]: negligible responses

**Q.** Which Sensitivity limit (DiOR1/Orco) does the source give for `CCCC/C=C/CCCCCCCCCC=O` [Ell-16:Ald] here?
**A.** The Sensitivity limit was 10^−7 M*.

**Q.** With `CC/C=C/CCCCCCCCCCOC(C)=O` [E11 pheromone] as the compound, how does the Sensitivity limit (ECB (Z) OR3/Orco) read?
**A.** Its Sensitivity limit is 10^−9 M.

**Q.** With `CCCCCCCCC1CCC(=O)O1` (stereo not shown) [g-dodecalactone] as the compound, how does the “Ec50 (given as Log)” value (AgOr48/Orco; log value) read?
**A.** The value was “Log = −7.01”.

**Q.** What about the “Sensitivity limit (given as Log)” value (AgOr48/Orco; ref 45, * estimated visually from graph) of the same compound?
**A.** The value was “Log = −8*”.
